In patent publication US20060172357A1, “Detecting human antibodies in non-human serum” (Genentech, priority 2004, published 2006):
Where two headings read alike, the source gives them in different places. The star is where a group is joined. Biotin = O=C1N[C@H]2[C@H](CS[C@H]2CCCCC(=O)*)N1

What was measured:
[1] = target: rhuMAb2H7; settings: apparent affinity; Method 2; peptide immobilized on streptavidin chip, 2H7-IgG injected, bivalent analyte model
Protocol: In the second method, affinities were measured with a Biacore 3000 on a strepavidin chip using either immobilized CD20-35 mer, bis(biotin)) at 685 RU, CD20(51-mer, mono(biotin)) at 1637 RU, or CD20(51-mer, bis(biotin)) at 1037 RU.
PBS/Tween/azide was used as the running buffer, at 20 μL/minute, with 20 mM HCl for regeneration. 2H7-IgG was injected, and the resulting data was fit to a bivalent analyte model.

[2] = target: rhuMAb2H7; settings: apparent equilibrium dissociation constant; Method 1; peptide immobilized on streptavidin chip, 2H7-IgG injected
Protocol: In the first method, affinities were measured with a Biacore 3000 on a strepavidin chip using either immobilized mono-biotinylated CD20-35 mer at 95 RU, or mono-biotinylated CD20-51 mer at 94 RU, where RU is a relative surface plasmon resonance unit based upon an arbitrary scale. The running buffer was HBS-EP flowing at 50 μL/min with 25 μl of 10 mM Glycine-HCl, and a pH of 2.5 for the regeneration. 2H7-IgG was injected, and the resulting data was fit to a 1:1 binding model with Biaevaluation 3.0 software (Biacore AB, Uppsala, Sweden) to get the apparent equilibrium dissociation constants.

[3] = target: T1, CD20 full Length (Homo sapiens, UniProt P11836); assay: ELISA using full-length CD20 molecule as the capture reagent; assay type: binding; settings: N 8
T1 construct: MKHQHQQ leader (N); octa-His (C); made in house; host or cells: E. coli
T1 sequence (P11836 1-297): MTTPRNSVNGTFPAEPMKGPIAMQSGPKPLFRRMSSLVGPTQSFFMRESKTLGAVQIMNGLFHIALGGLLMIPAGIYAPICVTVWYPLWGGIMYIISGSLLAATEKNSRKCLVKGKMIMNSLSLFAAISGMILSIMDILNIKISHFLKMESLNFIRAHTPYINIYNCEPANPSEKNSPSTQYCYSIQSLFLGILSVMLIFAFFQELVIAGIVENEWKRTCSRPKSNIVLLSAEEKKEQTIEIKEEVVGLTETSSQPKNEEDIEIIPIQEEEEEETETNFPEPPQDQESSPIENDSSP
Protocol: […] The plate was then washed for 3 times with the washing buffer (PBS with 0.05% polysorbate-20). Blocking buffer (200 μl) was added and the plate was sealed and incubated at room temperature for 2 hours with a gentle agitation. […] After incubating at room temperature for another hour with a gentle agitation, the plate was washed again with the washing buffer for six times and blotted dry. A volume of 100 μl of the detection agent diluted with the detection agent diluent was added and the plate was sealed and incubated at room temperature for one hour with a gentle agitation. The plate was then washed for another six times and blotted dry before the addition of 100 μl of an equal volume of TMB and H2O2. After incubating at room temperature for 15 minutes without agitation, the reaction was stopped by adding another 100 μl of 1 M H3PO4. The absorbance at 450 nm subtracted of that at 650 nm was read from the Spectra Max250 plate reader (Molecular Devices Corporation, Sunnyvale, Calif.), and the data were processed using SoftmaxPro (Molecular Devices Corporation, Sunnyvale, Calif.).

Substance	Kd [1]	Kd [2]	also measured
Biotin GKISHFLKMESLNFIRAHTPYINIYNCEPANPSEKNSPSTQYCYSIQSGGK (Biotin)-amide [Bis-CD20-51mer]	110 nM	–	–
Biotin-FIRAHTPYINIYNCEPANPSEKNSPSTQYCYSGGK(Biotin)-NH2 (cysteine pairing not given here) [Bis-CD20-35mer]	500 nM	–	–
Biotin-FIRAHTPYINIYNCEPANPSEKNSPSTQYCYSGGK-NH2 (cysteine pairing not given here) [Mono-CD20-35mer]	–	41700 nM	–
Biotin-GKISHFLKMESLNFIRAHTPYINIYNCEPANPSEKNSPSTQYCYSIQSGGK-NH2 (cysteine pairing not given here) [Mono-CD20-51 mer]	130 nM	47 nM	–
Rituxan: anti-CD20 antibody, generated as disclosed in U.S. Pat. No 5,736,137	–	–	signal of 247 ng/ml of antibody ([3]; capture reagent 1 μg/mL in PBS, detection Goat anti-hu F(ab′)2 HRP): 0.065 O.D.450 nm; signal of 247 ng/ml of antibody ([3]; capture reagent 1 μg/mL in PBS, detection Sheep anti-hu IgG HRP (Monkey Adsorbed)): 0.012 O.D.450 nm; signal of 247 ng/ml of antibody ([3]; capture reagent 5 μg/mL in PBS, detection Goat anti-hu F(ab′)2 HRP): 0.166 O.D.450 nm; signal of 247 ng/ml of antibody ([3]; capture reagent 5 μg/mL in PBS, detection Sheep anti-hu IgG HRP (Monkey Adsorbed)): 0.023 O.D.450 nm
